Data reported in PMC4897788, “Design, biological evaluation and 3D QSAR studies of novel dioxin-containing pyrazoline derivatives with thiourea skeleton as selective HER-2 inhibitors” (Scientific Reports, 2016).

Columns and labels:
[1] = tested on: MCF-7 human breast cancer cell line; assay: Anti-proliferation assay (MTT), MCF-7; assay type: cell-based; settings: MCF7, 24 h
Experimental: (§1) MCF-7 human breast cancer cells was cultured in DMEM/10% fetal bovine serum, in 5% CO2 water saturated atmosphere at 37 °C. MDA-MB-453 human breast cancer cells was cultured in L-15 medium in 100% air at 37 °C. Cell suspensions (10000/mL) were prepared and 100 μL/well dispensed into 96-well plates (Costar) giving 1000 cells/well. The plates were returned to the incubator for 24 h to allow the cells to reattach. These compounds were initially prepared at 20 mM in DMSO. Aliquots (200 μL) were diluted into 20 mL culture medium giving 200 μM, and 10 serial dilutions of 3× prepared. Aliquots (100 μL) of each dilution were added to the wells, giving doses ranging from 100 μM to 0.005 μM. After a further incubated at 37 °C for 24 h in a humidified atmosphere with 5% CO2, the cell viability was assessed by the conventional 3-(4,5-dimethylthiazol-2-yl)-2,5-diphenyltetrazolium bromide (MTT) reduction assay and carried out strictly according to the manufacturer instructions (Sigma). The absorbance at 590 nm was recorded using LX300 Epson Diagnostic micro-plate reader. Then GI50 was calculated using SPSS 13.0 software.

[2] = tested on: MDA-MB-453 human breast cancer cell line; assay: Anti-proliferation assay (MTT), MDA-MB-453; assay type: cell-based; settings: 24 h
Experimental: as §1

[3] = biological target: EGFR (Homo sapiens, UniProt P00533); assay: EGFR autophosphorylation kinase assay (DELFIA/time-resolved fluorometry)
Experimental: (§2) Both EGFR and HER-2 kinase assays were set up to assess the level of autophosphorylation based on DELFIA/Time-Resolved Fluorometry. […] Then, 10 μL of 5× buffer (containing 20 mM HEPES, 2 mM MnCl2, 100 μM Na3VO4, and 1 mM DTT) and 20 μL of 0.1 mM ATP-50 mM MgCl2 was added for 1 h. Positive and negative controls were included in each plate by incubation of enzyme with or without ATP-MgCl2. At the end of incubation, liquid was aspirated and plates were washed three times with wash buffer. A 75 μL (400 ng) sample of europium-labeled anti-phosphotyrosine antibody was added to each well for another 1 h of incubation. […] The IC50 was obtained from curves of percentage inhibition with eight concentrations of compound. As the contaminants in the enzyme preparation are fairly low, the majority of the signal detected by the anti-phosphotyrosine antibody is from EGFR or HER-2. The experiment was performed for three independent times and in triplicate each time.

[4] = biological target: HER-2 (Homo sapiens, UniProt P04626); assay: HER-2 autophosphorylation kinase assay (DELFIA/time-resolved fluorometry); settings: for SI EGFR/HER-2: selectivity index, IC50 EGFR/IC50 HER-2
Experimental: as §2

[5] = tested on: human erythrocytes; assay: Hemolysis test; assay type: cell-based; settings: lytic concentration 30%
Experimental: Hemolytic activity was assayed using fresh capillary human blood. Erythrocytes were collected by centrifuging the blood three times in chilled phosphate buffered saline (PBS at 4 °C) at 1000 × g for 10 min. The final pellet was resuspended in PBS to give a 2% w/v solution. Using a microtitre plate, 100 μL of the erythrocyte solution was added to dextran, PLL, stearyl-PLL or stearyl-PLL+ LDL (1–1000/μg/mL) in a volume of […]. Samples were then incubated for 3 h and the microtitre plate was centrifuged then at 1000 × g for 10 min and the supernatants (100 μL) transferred into a new microtitre plate. Hemoglobin release was determined spectrophotometrically using a microtitre plate reader (absorbance at 550 nm). Results were expressed as the amount of released hemoglobin induced by the compounds as a percentage of the total. Hemolysis test was tested according to the guide of biological evaluation of medical device (SFDA, China).

[6] = biological target: T1, HER-3 (Homo sapiens, UniProt P21860); assay: HER-3 inhibitory assay; assay type: biochemical
T1 construct: HER-3 cytoplasmic domain (HER-3-CD, amino acids 665–1339); His6 (N); made in house
T1 sequence (P21860 665-1339): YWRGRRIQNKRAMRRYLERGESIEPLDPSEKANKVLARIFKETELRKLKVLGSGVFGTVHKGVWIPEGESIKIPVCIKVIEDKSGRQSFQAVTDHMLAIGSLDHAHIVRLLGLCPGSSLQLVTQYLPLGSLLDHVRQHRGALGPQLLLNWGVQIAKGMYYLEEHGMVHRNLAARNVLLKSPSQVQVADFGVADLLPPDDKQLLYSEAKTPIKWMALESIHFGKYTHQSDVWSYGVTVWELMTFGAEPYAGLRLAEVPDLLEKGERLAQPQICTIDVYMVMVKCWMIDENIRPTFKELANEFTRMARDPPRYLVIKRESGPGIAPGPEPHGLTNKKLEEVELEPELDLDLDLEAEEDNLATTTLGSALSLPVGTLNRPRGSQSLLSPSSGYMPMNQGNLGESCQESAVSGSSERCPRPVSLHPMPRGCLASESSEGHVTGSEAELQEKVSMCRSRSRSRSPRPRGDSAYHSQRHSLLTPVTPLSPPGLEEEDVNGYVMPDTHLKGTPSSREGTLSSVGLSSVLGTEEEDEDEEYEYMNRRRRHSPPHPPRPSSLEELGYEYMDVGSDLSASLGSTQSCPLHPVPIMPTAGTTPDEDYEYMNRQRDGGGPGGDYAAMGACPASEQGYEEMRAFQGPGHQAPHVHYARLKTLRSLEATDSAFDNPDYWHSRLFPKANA
Experimental: A sequence that encodes (His)6 was located at the 5′ upstream to the HER-2 and EGFR sequences. Sf-9 cells were infected for 3 days for protein expression. Sf-9 cell pellets were solubilized at 0 °C in a buffer at pH 7.4 containing 50 mM HEPES, 10 mM NaCl, 1% Triton, 10 μM ammonium molybdate, 100 μM sodium vanadate, 10 μg/mL aprotinin, 10 μg/mL leupeptin, 10 μg/mL pepstatin, and 16 μg/mL benzamidine, HCl for 20 min followed by 20 min centrifugation. Crude extract supernatant was passed through an equilibrated Ni–NTA superflow packed column and washed with 10 mM and then 100 mM imidazole to remove nonspecifically bound material. Histidine-tagged proteins were eluted with 250 and 500 mM imidazole and dialyzed against 50 mM NaCl, 20 mM HEPES, 10% glycerol and 1 μg/mL each of aprotinin, leupeptin, and pepstatin for 2 h. The entire purification procedure was performed at 4 °C or on ice.
A 1.8 Kb cDNA encoded for human HER-3 cytoplasmic domain (HER-3-CD, amino acids 665–1339) was applied to perform the experiment using the same method as EGFR/HER-2.

[7] = biological target: T2, FAK (Homo sapiens, UniProt Q05397); assay: FAK inhibitory assay (Kinase-Glo); assay type: biochemical
T2 construct: human-recombinant full-length FAK
Experimental: Selected compounds were tested against FAK. In a typical study, human-recombinant full-length FAK was incubated in kinase buffer containing ATP and the substrate for 4 h at room temperature with or without the presence of the corresponding coumpounds. The final concentration of drug as 100, 30, 10, 3 μg/mL. The remaining ATP in solution was then quantified utilizing the Kinase-Glo-luminescence kit (Promega).

[8] = biological target: T3, VEGFR-2 (Homo sapiens, UniProt P35968); assay: VEGFR-2 inhibitory assay; assay type: biochemical
T3 construct: either the phosphorylated or nonphosphorylated form of the VEGFR-2 kinase domain
Experimental: In a 96-well plate, 5 nM/L of either the phosphorylated or nonphosphorylated form of the VEGFR-2 kinase domain was incubated with selected compounds (10-point titration ranging from 4 μM to 0.1 μM), 1 μM/L gastrin substrate, 20 mM/L Tris-HCl, pH 7.5, 10 mM/L MgCl2, 100 mM/L NaCl, 1.5 mM/L EGTA, 1 mM/L DTT, 0.2 mM/L sodium orthovanadate, and 20 μg/mL BSA for 30 min at 25 °C. ATP was added at a final concentration of 11.8 μM and incubated for 60 min at room temperature. Eu-labeled antiphosphotyrosine pT66 antibody (Perkin- Elmer) was then used for detection. The fluorescence at 665 nM was measured with a Wallac Victor plate reader using a time delay of 50 μs. The experiment was performed for three independent times and in triplicate each time.

[9] = Cytotoxicity test (MTT), NIH-3T3; assay type: cell-based; settings: mouse, NIH-3T3 mouse embryonic fibroblast cells, NIH3T3
Experimental: The cytotoxic activity in vitro was measured against mouse fibroblast NIH-3T3 cell using the MTT assay. Cells were cultured in a 96-well plate at a density of 5 × 10^5 cells and different concentrations of compounds were respectively added to each well. The incubation was permitted at 37 °C, 5% CO2 atmosphere for 24 h before the cytotoxicity assessments. 20 μL MTT reagent (4 mg/mL) was added per well 4 h before the end of the incubation. Four hours later, the plate was centrifuged at 1200 rcf for 5 min and the supernatants were removed, each well was added with 200 μL DMSO. The absorbance was measured at a wavelength of 490 nm (OD 490 nm) on an ELISA microplate reader. Three replicate wells were used for each concentration and each assay was measured three times, after which the average of IC50 was calculated. The cytotoxicity of each compound was expressed as the concentration of compound that reduced cell viability to 50% (IC50).

Chain of EGFR (P00533 669-1210): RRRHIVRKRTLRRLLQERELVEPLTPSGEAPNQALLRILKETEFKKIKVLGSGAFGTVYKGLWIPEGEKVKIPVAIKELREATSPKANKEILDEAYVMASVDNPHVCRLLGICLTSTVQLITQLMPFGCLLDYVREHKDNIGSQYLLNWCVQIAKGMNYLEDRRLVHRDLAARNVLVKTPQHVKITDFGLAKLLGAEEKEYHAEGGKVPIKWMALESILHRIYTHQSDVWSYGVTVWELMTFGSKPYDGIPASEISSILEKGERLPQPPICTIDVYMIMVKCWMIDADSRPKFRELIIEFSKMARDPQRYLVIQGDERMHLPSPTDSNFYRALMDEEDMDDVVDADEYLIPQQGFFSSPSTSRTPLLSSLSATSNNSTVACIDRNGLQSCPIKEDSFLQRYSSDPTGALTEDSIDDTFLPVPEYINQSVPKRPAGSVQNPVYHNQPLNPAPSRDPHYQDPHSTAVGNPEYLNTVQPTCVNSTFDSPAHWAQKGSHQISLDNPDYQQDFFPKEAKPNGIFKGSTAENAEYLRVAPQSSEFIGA
Chain of HER-2 (P04626 676-1245): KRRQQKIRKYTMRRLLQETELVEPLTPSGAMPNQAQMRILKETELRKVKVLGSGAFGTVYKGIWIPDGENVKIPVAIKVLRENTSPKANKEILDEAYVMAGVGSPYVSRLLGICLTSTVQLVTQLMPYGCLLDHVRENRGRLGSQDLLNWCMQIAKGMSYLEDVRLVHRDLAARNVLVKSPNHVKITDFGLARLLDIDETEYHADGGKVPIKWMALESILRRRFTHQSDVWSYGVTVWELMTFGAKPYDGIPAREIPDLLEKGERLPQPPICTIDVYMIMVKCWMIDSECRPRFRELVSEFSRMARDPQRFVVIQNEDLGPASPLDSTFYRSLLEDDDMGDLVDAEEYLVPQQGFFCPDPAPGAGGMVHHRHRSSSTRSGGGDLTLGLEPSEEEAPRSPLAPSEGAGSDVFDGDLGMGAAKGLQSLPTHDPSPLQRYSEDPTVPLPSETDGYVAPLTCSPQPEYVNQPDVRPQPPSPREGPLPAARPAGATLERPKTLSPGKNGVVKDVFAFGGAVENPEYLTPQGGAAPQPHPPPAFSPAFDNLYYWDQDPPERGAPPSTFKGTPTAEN
T2 sequence (Q05397 whole entry): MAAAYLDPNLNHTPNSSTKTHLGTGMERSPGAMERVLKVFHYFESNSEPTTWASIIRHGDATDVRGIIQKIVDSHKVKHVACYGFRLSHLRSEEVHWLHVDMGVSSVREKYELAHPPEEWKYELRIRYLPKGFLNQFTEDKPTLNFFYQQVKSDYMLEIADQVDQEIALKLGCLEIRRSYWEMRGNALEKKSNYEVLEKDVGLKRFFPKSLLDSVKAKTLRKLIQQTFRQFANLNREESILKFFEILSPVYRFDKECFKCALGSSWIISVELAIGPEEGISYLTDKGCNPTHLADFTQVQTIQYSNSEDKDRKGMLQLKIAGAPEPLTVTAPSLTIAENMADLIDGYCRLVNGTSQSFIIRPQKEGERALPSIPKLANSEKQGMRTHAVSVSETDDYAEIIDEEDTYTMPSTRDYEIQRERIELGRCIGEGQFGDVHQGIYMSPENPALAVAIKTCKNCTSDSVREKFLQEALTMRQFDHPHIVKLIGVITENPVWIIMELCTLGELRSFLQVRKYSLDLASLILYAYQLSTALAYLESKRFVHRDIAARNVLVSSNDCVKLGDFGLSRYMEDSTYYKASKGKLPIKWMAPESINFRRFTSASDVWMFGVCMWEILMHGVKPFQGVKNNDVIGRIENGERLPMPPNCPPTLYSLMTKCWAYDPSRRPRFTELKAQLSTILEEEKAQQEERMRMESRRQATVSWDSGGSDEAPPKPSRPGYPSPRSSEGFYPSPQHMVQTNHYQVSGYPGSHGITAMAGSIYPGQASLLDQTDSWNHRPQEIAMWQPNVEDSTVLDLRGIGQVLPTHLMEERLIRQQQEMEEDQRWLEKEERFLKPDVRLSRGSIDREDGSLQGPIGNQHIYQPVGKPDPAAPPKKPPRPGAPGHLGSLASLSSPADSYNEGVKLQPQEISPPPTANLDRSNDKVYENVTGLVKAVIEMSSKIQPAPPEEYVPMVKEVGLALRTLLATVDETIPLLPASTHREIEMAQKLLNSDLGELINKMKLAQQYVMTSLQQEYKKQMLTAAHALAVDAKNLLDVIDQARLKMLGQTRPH
T3 sequence (P35968 834-1162 limits assumed, species assumed): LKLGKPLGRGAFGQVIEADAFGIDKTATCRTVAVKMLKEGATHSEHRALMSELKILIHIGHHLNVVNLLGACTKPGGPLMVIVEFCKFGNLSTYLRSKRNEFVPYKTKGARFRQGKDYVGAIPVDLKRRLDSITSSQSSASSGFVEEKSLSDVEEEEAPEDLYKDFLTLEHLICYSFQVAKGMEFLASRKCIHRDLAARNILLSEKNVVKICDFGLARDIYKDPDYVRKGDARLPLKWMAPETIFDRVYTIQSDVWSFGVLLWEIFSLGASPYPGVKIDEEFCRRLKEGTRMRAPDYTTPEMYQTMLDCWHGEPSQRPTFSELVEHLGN

NC(=S)N1N=C(c2ccc3c(c2)OCCO3)CC1c1cccc(Br)c1 (centres unmarked) [Compound C8, 5-(3-bromophenyl)-3-(2,3-dihydrobenzo[b][1,4]dioxin-6-yl)-4,5-dihydro-1H-pyrazole-1-carbothioamide]
GI50 [1]: 5.64 ± 0.52 µM
melting point: 247 to 249 °C
GI50 [2]: 1.69 ± 0.15 µM
IC50 [3]: 8.63 ± 0.78 µM
IC50 [4]: 0.45 ± 0.04 µM
SI EGFR/HER-2 [4]: 19.2

Cc1ccc(C2CC(c3ccc4c(c3)OCCO4)=NN2C(N)=S)cc1 (centres unmarked) [Compound C9, 3-(2,3-dihydrobenzo[b][1,4]dioxin-6-yl)-5-(p-tolyl)-4,5-dihydro-1H-pyrazole-1-carbothioamide]
Hemolysis LC30 [5]: >10000 µg/mL
GI50 [1]: 56.2 ± 5.41 µM
GI50 [2]: 1.38 ± 0.12 µM
IC50 [6]: 6.32 ± 0.58 µM
IC50 [7]: 36.1 ± 3.21 µM
IC50 [3]: 65.2 ± 5.88 µM
IC50 [8]: 11.5 ± 1.07 µM
GI50 at 24 h [9]: 199.1 ± 1.6 µM
IC50 [4]: 0.37 ± 0.03 µM
SI EGFR/HER-2 [4]: 176.1

COc1ccc(C2CC(c3ccc4c(c3)OCCO4)=NN2C(N)=S)cc1 (centres unmarked) [Compound C10, 3-(2,3-dihydrobenzo[b][1,4]dioxin-6-yl)-5-(4-methoxyphenyl)-4,5-dihydro-1H-pyrazole-1-carbothioamide]
Hemolysis LC30 [5]: >10000 µg/mL
GI50 [1]: 18.2 ± 1.71 µM
GI50 [2]: 0.25 ± 0.02 µM
IC50 [6]: 10.7 ± 0.96 µM
IC50 [7]: 64 ± 5.95 µM
IC50 [3]: 37.9 ± 3.75 µM
IC50 [8]: 6.91 ± 0.64 µM
GI50 at 24 h [9]: 204 ± 3.05 µM
IC50 [4]: 0.08 ± 0.006 µM
SI EGFR/HER-2 [4]: 474.4

NC(=S)N1N=C(c2ccc3c(c2)OCCO3)CC1c1ccc(F)cc1 (centres unmarked) [Compound C11, 3-(2,3-dihydrobenzo[b][1,4]dioxin-6-yl)-5-(4-fluorophenyl)-4,5-dihydro-1H-pyrazole-1-carbothioamide]
GI50 [1]: 28.5 ± 2.8 µM
melting point: 235 to 237 °C
GI50 [2]: 11.9 ± 1.05 µM
IC50 [3]: 47.8 ± 4.54 µM
IC50 [4]: 1.9 ± 0.15 µM
SI EGFR/HER-2 [4]: 25.2

NC(=S)N1N=C(c2ccc3c(c2)OCCO3)CC1c1ccc(Cl)cc1 (centres unmarked) [Compound C12, 5-(4-chlorophenyl)-3-(2,3-dihydrobenzo[b][1,4]dioxin-6-yl)-4,5-dihydro-1H-pyrazole-1-carbothioamide]
GI50 [1]: 33.9 ± 3.21 µM
melting point: 231 to 233 °C
GI50 [2]: 5.31 ± 0.48 µM
IC50 [3]: 53.8 ± 5.12 µM
IC50 [4]: 0.84 ± 0.07 µM
SI EGFR/HER-2 [4]: 64.1

NC(=S)N1N=C(c2ccc3c(c2)OCCO3)CC1c1ccc(I)cc1 (centres unmarked) [Compound C14, 3-(2,3-dihydrobenzo[b][1,4]dioxin-6-yl)-5-(4-iodophenyl)-4,5-dihydro-1H-pyrazole-1-carbothioamide]
GI50 [1]: 135 ± 11.6 µM
melting point: 259 to 261 °C
GI50 [2]: 9.12 ± 0.89 µM
IC50 [3]: 84.3 ± 7.81 µM
IC50 [4]: 1.23 ± 0.1 µM
SI EGFR/HER-2 [4]: 68.5

NC(=S)N1N=C(c2ccc3c(c2)OCCO3)CC1c1ccc(OCc2ccccc2)cc1 (centres unmarked) [Compound C16, 5-(4-(benzyloxy)phenyl)-3-(2,3-dihydrobenzo[b][1,4]dioxin-6-yl)-4,5-dihydro-1H-pyrazole-1-carbothioamide]
GI50 [1]: 5.99 ± 0.55 µM
melting point: 197 to 199 °C
GI50 [2]: 0.36 ± 0.03 µM
IC50 [3]: 10.2 ± 0.94 µM
IC50 [4]: 0.13 ± 0.01 µM
SI EGFR/HER-2 [4]: 78.5

NC(=S)N1N=C(c2ccc3c(c2)OCCO3)CC1c1c(F)cccc1F (centres unmarked) [Compound C18, 5-(2,6-difluorophenyl)-3-(2,3-dihydrobenzo[b][1,4]dioxin-6-yl)-4,5-dihydro-1H-pyrazole-1-carbothioamide]
GI50 [1]: 15.2 ± 1.4 µM
melting point: 208 to 209 °C
GI50 [2]: 8.68 ± 0.84 µM
IC50 [3]: 34 ± 3.08 µM
IC50 [4]: 0.96 ± 0.08 µM
SI EGFR/HER-2 [4]: 35.4

NC(=S)N1N=C(c2ccc3c(c2)OCCO3)CC1c1ccco1 (centres unmarked) [Compound C19, 3-(2,3-dihydrobenzo[b][1,4]dioxin-6-yl)-5-(furan-2-yl)-4,5-dihydro-1H-pyrazole-1-carbothioamide]
GI50 [1]: > 300 µM
melting point: 174 to 175 °C
GI50 [2]: 33.4 ± 2.95 µM
IC50 [3]: 197 ± 18.5 µM
IC50 [4]: 12 ± 1.02 µM
SI EGFR/HER-2 [4]: 16.3
